Assay results taken from BindingDB's records for doi:10.1016/j.chembiol.2015.08.013 (Aston University, 2015).

These compounds were tested against T1, Protein-glutamine gamma-glutamyltransferase 2 (Homo sapiens, UniProt P21980) (assay: TG Activity Assays).
T1 sequence (P21980 whole entry): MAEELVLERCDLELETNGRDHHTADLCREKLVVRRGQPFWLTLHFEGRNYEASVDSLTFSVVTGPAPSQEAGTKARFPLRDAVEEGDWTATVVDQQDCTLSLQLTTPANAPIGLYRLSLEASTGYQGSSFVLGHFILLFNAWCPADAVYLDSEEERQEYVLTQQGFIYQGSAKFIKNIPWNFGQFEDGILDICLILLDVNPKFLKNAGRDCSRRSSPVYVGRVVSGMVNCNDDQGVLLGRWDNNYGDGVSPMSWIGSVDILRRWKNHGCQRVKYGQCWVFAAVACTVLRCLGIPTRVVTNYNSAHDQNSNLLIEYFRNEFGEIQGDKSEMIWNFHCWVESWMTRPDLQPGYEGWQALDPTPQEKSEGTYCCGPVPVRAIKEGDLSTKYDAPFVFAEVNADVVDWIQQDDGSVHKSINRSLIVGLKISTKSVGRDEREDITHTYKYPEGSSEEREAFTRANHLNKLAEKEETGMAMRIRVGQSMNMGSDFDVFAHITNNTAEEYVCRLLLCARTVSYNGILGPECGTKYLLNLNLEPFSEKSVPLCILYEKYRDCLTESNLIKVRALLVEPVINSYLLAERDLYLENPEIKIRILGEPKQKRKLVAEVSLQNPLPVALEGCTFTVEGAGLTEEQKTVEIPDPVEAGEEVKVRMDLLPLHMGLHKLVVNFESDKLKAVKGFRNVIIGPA
Description: The incorporated biotinylated peptides were measured using horseradish peroxidase-conjugated streptavidin and then measured using o-phenylenediamine dihydrochloride substrates. The absorbance was measured at 490 nm using a microplat

SMILES | IC50 [nM]
O=C(CBr)NCC(=O)N1CCN(C(=O)OCC23CC4CC(CC(C4)C2)C3)CC1 [1-Adamantylmethyl 4-[2-[(2-bromoacetyl)amino]acetyl]piperazine-1-carboxylate (6f)] | 6.29
O=C(CBr)NCC(=O)N1CCN(C(=O)OCc2ccc3ccccc3c2)CC1 [2-Naphthylmethyl 4-[2-[(2-bromoacetyl)amino]acetyl]piperazine-1-carboxylate (6c)] | 29
C=CC(=O)NCC(=O)N1CCN(C(=O)OCc2ccc(C(=O)OC)cc2)CC1 [(4-Methoxycarbonylphenyl)methyl 4-[2-(prop-2-enoylamino)acetyl]piperazine-1-carboxylate (3b)] | 6300
COC(=O)c1ccc(COC(=O)N2CCN(C(=O)CNC(=O)CBr)CC2)cc1 [(4-Methoxycarbonylphenyl)methyl 4-[2-[(2-bromoacetyl)amino]acetyl]piperazine-1-carboxylate (6b)] | 2.1
COC(=O)c1ccc2cc(COC(=O)N3CCN(C(=O)CNC(=O)CCl)CC3)ccc2c1 [(6-Methoxycarbonyl-2-naphthyl)methyl 4-[2-[(2-chloroacetyl)amino]acetyl]piperazine-1-carboxylate (6n)] | 6.65
C=CC(=O)NCC(=O)N1CCN(C(=O)OCc2ccccc2)CC1 [Benzyl 4-[2-(prop-2-enoylamino)acetyl]piperazine-1-carboxylate (3a)] | 5920
C=CS(=O)(=O)NCC(=O)N1CCN(C(=O)OCc2ccccc2)CC1 [Benzyl 4-[2-(vinylsulfonylamino)acetyl]piperazine-1-carboxylate (2a)] | 1730
Cc1c(C)[n+](C)c(SCC(=O)NCC(=O)N2CCN(C(=O)OCc3ccccc3)CC2)n1C [Benzyl 4-[2-[[2-(1,3,4,5-tetramethylimidazol-1-ium-2-yl)sulfanylacetyl]amino]-acetyl]-piperazine-1-carboxylate bromide (1s)] | 100000
O=C(CCl)NCC(=O)N1CCN(C(=O)C23CC4CC(CC(C4)C2)C3)CC1 [N-[2-[4-(adamantane-1-carbonyl)piperazin-1-yl]-2-oxo-ethyl]-2-chloro-acetamide (6o)] | 8.75
C=CS(=O)(=O)NCC(=O)N1CCN(C(=O)C23CC4CC(CC(C4)C2)C3)CC1 [N-[2-[4-(adamantane-1-carbonyl)piperazin-1-yl]-2-oxo-ethyl]ethenesulfonamide (2e)] | 875
C[S+](C)CC(=O)NCC(=O)N1CCN(C(=O)OCCC23CC4CC(CC(C4)C2)C3)CC1 [[2-[[2-[4-[2-(1-Adamantyl)ethoxycarbonyl]piperazin-1-yl]-2-oxo-ethyl]amino]-2-oxo-ethyl]-dimethyl-sulfonium bromide (1g)] | 3150
